From publication PMC7005530, “A selective androgen receptor modulator SARM‐2f activates androgen receptor, increases lean body mass, and suppresses blood lipid levels in cynomolgus monkeys” (Pharmacology Research & Perspectives, 2020)

Tests used:
[1] = Plasma lipid levels after 4-week treatment; format: in vivo, cynomolgus monkey; conditions: after 4 wks; SARM‐2f 1, 3, 10 mg/kg daily p.o.; TE 2 mg/kg every 2 wks; vs vehicle
Protocol: The monkeys were divided into five groups by weight randomization (MiTOX system ver2.0, Mitsui E & S Systems Research Inc) on the last day of the habituation period. SARM‐2f was orally administered at daily doses of 1, 3, or 10 mg/kg for 4 weeks between 9:00 and 11:00 hours, using 0.5% w/v methylcellulose as the vehicle. TE was injected intramuscularly on Day 0 and Day 13; the dosing start was set at Day 0 at a dose of 2 mg/kg using sesame oil as the vehicle. The route of administration and dose of TE was selected according to the route and dose mentioned in the clinical indications. BW was measured every week before dosing (between 8:30 and 9:00 hours), and LBM was measured every 2 weeks after dosing and before feeding (between 11:30 and 14:30 hours) using an X‐ray bone density measuring device (Discovery, HOLOGIC USA). Blood collection for lipid profiles was conducted on the day after the completion of the four‐week multiple administration of SARM‐2f or TE. Plasma levels of total cholesterol (T‐chol), HDL‐c, low‐density lipoprotein cholesterol (LDL‐c), triglyceride (TG), alanine aminotransferase (ALT), and […] (AST) were measured by an automatic JCA‐BM8 analysis system (JEOL Ltd.). Plasma lipoprotein (a) (Lp (a)) levels were measured using a multiplate absorbance measuring system (Multiscan Ascent, Thermo Fisher Scientific KK). […]

[2] = Liver function tests (AST, ALT) after 4-week treatment; format: in vivo, cynomolgus monkey; conditions: after 4 wks; SARM‐2f 1, 3, 10 mg/kg daily p.o.; TE 2 mg/kg every 2 wks; vs vehicle
Protocol: The monkeys were divided into five groups by weight randomization (MiTOX system ver2.0, Mitsui E & S Systems Research Inc) on the last day of the habituation period. SARM‐2f was orally administered at daily doses of 1, 3, or 10 mg/kg for 4 weeks between 9:00 and 11:00 hours, using 0.5% w/v methylcellulose as the vehicle. TE was injected intramuscularly on Day 0 and Day 13; the dosing start was set at Day 0 at a dose of 2 mg/kg using sesame oil as the vehicle. The route of administration and dose of TE was selected according to the route and dose mentioned in the clinical indications. BW was measured every week before dosing (between 8:30 and 9:00 hours), and LBM was measured every 2 weeks after dosing and before feeding (between 11:30 and 14:30 hours) using an X‐ray bone density measuring device (Discovery, HOLOGIC USA). Blood collection for lipid profiles was conducted on the day after the completion of the four‐week multiple administration of SARM‐2f or TE. Plasma levels of total cholesterol (T‐chol), HDL‐c, low‐density lipoprotein cholesterol (LDL‐c), triglyceride (TG), alanine aminotransferase (ALT), and […] (AST) were measured by an automatic JCA‐BM8 analysis system (JEOL Ltd.). Plasma lipoprotein (a) (Lp (a)) levels were measured using a multiplate absorbance measuring system (Multiscan Ascent, Thermo Fisher Scientific KK).
(§1) In the reporter assays, EC50 was calculated using Graph Pad Prism version 6. The effects of SARM‐2f or TE on BW and LBM were analyzed by t test, with Bonferroni correction for repeated measurements.

[3] = TE intramuscular 20 mg/kg, monkeys, cited from earlier work
cynomolgus monkey AR = molecular target: T1, cynomolgus monkey AR (Macaca fascicularis, UniProt O97952); assay: AR reporter assay (MMTV-luc) in COS7 cells expressing monkey AR; format: cell-based
T1 construct: expressed in transfected cells; host or cells: COS7
T1 sequence (O97952 1-895): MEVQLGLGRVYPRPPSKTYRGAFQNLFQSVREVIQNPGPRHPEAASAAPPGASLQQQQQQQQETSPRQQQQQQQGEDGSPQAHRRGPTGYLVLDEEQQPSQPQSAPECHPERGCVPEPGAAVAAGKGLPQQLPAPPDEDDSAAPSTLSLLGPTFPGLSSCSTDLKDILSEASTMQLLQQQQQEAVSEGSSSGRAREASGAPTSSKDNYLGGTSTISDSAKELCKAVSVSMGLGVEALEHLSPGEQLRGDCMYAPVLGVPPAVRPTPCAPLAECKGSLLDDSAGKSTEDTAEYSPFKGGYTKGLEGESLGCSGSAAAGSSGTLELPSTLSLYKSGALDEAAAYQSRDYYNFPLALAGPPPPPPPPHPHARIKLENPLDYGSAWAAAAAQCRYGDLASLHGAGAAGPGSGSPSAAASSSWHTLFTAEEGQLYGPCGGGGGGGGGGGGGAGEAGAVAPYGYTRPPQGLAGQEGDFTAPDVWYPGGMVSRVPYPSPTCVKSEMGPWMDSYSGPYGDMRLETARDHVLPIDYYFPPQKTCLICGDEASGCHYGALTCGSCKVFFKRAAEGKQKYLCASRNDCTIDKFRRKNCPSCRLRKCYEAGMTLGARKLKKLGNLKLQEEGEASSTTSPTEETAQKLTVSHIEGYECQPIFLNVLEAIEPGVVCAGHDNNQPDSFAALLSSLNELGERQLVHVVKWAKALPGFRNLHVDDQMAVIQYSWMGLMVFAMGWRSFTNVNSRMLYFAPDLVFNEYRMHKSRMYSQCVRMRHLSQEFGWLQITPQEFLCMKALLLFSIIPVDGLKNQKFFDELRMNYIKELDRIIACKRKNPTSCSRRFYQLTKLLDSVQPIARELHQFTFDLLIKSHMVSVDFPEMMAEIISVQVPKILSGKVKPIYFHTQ
Protocol: (§2) Two hours post‐transfection, the cells were plated in 96‐well plates at a density of 2 × 10^4 cells/well, and cultured at 37°C for 3 hours. […] Luciferase activity was measured using the Steady‐Glo Luciferase assay system (Promega) and an Envision Multimode Plate Reader (PerkinElmer).
as §1

human AR = molecular target: T2, human AR (Homo sapiens, UniProt P10275); assay: AR reporter assay (MMTV-luc) in COS7 cells expressing human AR; format: cell-based; set-up: Emax: dose or concentration left out as unconfirmed; conditions: COS-7, read-out: maximal activation level
T2 construct: expressed in transfected cells; host or cells: COS7
T2 sequence (P10275 1-920): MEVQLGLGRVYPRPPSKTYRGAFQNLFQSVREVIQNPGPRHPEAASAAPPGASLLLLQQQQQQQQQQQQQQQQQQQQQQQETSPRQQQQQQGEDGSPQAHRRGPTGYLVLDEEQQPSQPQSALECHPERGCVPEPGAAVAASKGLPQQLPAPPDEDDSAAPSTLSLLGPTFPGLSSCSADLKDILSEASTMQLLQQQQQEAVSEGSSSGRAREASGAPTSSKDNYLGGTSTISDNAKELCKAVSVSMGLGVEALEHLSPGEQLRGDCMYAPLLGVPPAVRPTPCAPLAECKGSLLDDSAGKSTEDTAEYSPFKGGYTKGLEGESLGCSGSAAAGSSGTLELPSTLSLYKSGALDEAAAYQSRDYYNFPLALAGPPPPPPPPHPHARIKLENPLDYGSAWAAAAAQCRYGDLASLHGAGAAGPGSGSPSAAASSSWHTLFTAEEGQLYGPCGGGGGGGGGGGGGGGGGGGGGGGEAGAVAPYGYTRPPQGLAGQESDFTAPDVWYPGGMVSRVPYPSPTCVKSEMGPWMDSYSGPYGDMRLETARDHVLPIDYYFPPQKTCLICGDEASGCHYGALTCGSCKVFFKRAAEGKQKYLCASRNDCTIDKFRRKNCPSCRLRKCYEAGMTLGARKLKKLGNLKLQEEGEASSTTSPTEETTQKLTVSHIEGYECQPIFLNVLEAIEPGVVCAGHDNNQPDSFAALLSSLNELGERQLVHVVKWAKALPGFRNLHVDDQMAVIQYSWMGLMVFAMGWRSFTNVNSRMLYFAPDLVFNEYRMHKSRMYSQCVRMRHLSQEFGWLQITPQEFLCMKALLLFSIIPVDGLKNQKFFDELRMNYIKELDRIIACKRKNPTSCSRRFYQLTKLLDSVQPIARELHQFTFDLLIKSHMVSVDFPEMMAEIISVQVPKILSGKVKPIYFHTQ
Protocol: as §2, §1

rat AR = molecular target: T3, rat AR (Rattus norvegicus, UniProt P15207); assay: AR reporter assay (MMTV-luc) in COS7 cells expressing rat AR; format: cell-based; set-up: Emax: dose or concentration left out as unconfirmed
T3 construct: expressed in transfected cells; host or cells: COS7
T3 sequence (P15207 1-902): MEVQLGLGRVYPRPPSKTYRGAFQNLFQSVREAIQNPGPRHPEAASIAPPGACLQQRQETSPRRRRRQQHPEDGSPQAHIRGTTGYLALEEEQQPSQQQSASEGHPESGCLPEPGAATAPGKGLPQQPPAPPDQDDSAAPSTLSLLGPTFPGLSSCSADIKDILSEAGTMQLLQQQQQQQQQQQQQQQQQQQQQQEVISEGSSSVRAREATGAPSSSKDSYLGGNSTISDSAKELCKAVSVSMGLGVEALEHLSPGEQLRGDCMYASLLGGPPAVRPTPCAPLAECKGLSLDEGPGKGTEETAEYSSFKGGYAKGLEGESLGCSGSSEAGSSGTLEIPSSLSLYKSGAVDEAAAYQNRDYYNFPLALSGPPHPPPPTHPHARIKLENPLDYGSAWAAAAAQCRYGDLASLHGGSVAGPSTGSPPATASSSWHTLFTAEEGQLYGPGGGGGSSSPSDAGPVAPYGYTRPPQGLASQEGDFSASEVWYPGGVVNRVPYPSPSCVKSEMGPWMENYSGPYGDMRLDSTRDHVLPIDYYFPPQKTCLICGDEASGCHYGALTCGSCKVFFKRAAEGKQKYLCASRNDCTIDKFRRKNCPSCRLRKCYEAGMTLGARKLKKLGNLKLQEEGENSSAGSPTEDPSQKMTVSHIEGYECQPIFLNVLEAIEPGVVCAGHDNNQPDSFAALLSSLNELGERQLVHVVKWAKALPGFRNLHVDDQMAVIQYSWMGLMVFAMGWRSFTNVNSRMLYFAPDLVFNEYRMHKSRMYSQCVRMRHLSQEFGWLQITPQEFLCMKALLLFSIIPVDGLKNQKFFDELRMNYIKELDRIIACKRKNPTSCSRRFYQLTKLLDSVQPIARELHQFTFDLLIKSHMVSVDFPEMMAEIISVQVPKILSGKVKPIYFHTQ
Protocol: as §2, §1

With `CCCCCCC(=O)O[C@H]1CC[C@H]2[C@@H]3CCC4=CC(=O)CC[C@]4(C)[C@H]3CC[C@]12C` [TE, Testosterone enanthate, reference compound] the “Blood level of HDL‐c” value [1] was “did not affect”, the “Blood level of LDL‐c” value [1] was “increase the LDL‐c level significantly” and the “Blood level of TG” value [1] was “did reduce the TG level”. The “Blood level of T‐chol” value [1] was “did not affect”, the “Lp (a) protein level” value [1] was “did not affect” and the “Blood level of ALT” value [2] was “not changed”. The “Blood level of AST” value [2] was “not changed”, the “effect on BW” value ([3]; within 4 weeks) was “significantly increasing the BW” and the “blood testosterone nadir levels” value [3] was “approximately 1500 ng/dL”.

In the case of `C[C@](O)(COc1ccc(C#N)cc1)C(=O)Nc1ccc(C#N)c(C(F)(F)F)c1` [ostarine, reference compound], the EC50 (cynomolgus monkey AR) is reported as 2.2 nM, the “maximal AR activation” value (cynomolgus monkey AR; monkey AR, at 1 μmol/L, 1 μmol/L DHT = 100%) is reported as 126% and the Emax (human AR) is reported as 141%. It also gave an EC50 (rat AR) of 2.5 nM and an Emax (rat AR; COS-7, read-out: maximal activation) of 112%.
